Results taken from PMC8245078, “Development of novel benzofuran-isatin conjugates as potential antiproliferative agents with apoptosis inducing mechanism in Colon cancer” (Journal of Enzyme Inhibition and Medicinal Chemistry, 2021).

Columns and labels:
MOLT-4 = assay type: cell-based; conditions: MOLT-4, five-dose test
HT29 = assay type: cell-based; conditions: Homo sapiens, HT-29; HT29, five-dose test; read-out: LC50 (the source's name)
PC-3 = assay type: cell-based; conditions: PC-3, five-dose test
HS 578 T = assay type: cell-based; conditions: five-dose test
[1] = test system: SW-620 colorectal cancer cell line; test: MTT cell viability assay; assay type: cell-based, human; conditions: for inhibition of SW-620 cancer cells viability: 10 µM, 24 h, MTT
Protocol: In the present investigation a new set of benzofuran–isatin hybrids (5a–e and 7a–i) was synthesised to be evaluated for their potential anticancer activity towards two human colorectal cancer cell lines, SW-620 and HT-29. […] Both, SW-620 and HT-29 cells were treated with 10 µM of each compound for 24 h and the percent cell viability was calculated using MTT assay.
For this reason, compounds 5a and 5d were pursued for further studies. Starting with determination of IC50s and cytotoxic selectivity studies. Serial concentrations of compounds 5a and 5d were used to examine their impact on cell viability using MTT protocol. Results of concentration vs percent viability were charted, and the IC50 was calculated for SW-620 and HT-29 cell lines using Graph Pad prism 8 (Figure 4). […]
[(Ti-Tz)/Tz] x 100 for concentrations for which Ti<Tz […]
SW620 and HT29 colorectal cancer cell lines and HFF-1 fibroblast (ATCC, Rockville, USA) were used. HT29 cells were cultured and maintained in Dulbecco’s Modified Eagles Medium (DMEM) (GIBCO, by Thermo Fischer Scientific, NY, USA) supplemented with 10% fetal bovine serum (FBS), 100 units/mL penicillin, and 100 μg streptomycin. SW620 and HFF-1 cells were cultured in Roswell Park Memorial Institute medium (RPMI-1640) (GIBCO, by Thermo scientific, NY, USA) supplemented with 10% FBS and 1% penicillin and streptomycin (Napolitano et al., 2015). All cultures were incubated at 37 °C and humidified atmosphere of 5% […]
2.3. Cell Viability Assay
The cytotoxicity effect of compounds on the colorectal cancer cell lines, SW620 and HT29 in addition to the normal human fibroblasts was measured by MTT (3-(4, 5-dimethylthiazol-2-yl)-2,5-diphenyltetrazolium bromide) (Sigma-Aldrich, St. Louis, MO, USA) as previously described. Briefly, cells were seeded in 96 well culture plates at 5000/well for HT29 and 10,000/well for SW620 for 24 h. Cells were then incubated with different compounds from WAG1 series (1-15) 24h at 37 °C and humidified 5% CO2 incubator. Freshly prepared 10 μl of 3-(4,5-dimethylthiazol-2-yl)-2,5-diphenyltetrazolium bromide (MTT 5 mM) solution were added to the cells and further incubated for 2 h. Thereafter, 100 μl of dimethyl sulfoxide (DMSO) were added in each well and the crystals were dissolved through careful pipetting. In certain experiment, cells were treated different concentration of 5FU for 72 h. The absorbance of the product was measured at 540 nm using a Synergy™ 2 multi-mode microplate reader (Biotech, VA, USA). The experiments were performed in triplicate for each condition. […]
The total protein concentration was evaluated by the colorimetric
Bradford protein assay (BIO-RAD inc, CA, USA) at 595 nm absorbance. Lysates were loaded in […]

[2] = test system: human skin fibroblast (HFF-1) normal cells; test: MTT cell viability assay on normal cells; assay type: cell-based; conditions: HFF-1, incubation for 24 h
Protocol: Furthermore, selective cytotoxicity of compounds 5a and 5d was studied on human skin fibroblast (HFF-1) normal cells. […]
each well, and plates were incubated for 10 minutes at room temperature. After staining, unbound dye was removed by washing five times with 1 % acetic acid and the plates were air dried. Bound stain was subsequently solubilized with 10 mM trizma base, and the absorbance was read on an automated plate reader at a wavelength of 515 nm. For suspension cells, the methodology was the same except that the assay was terminated by fixing settled cells at the bottom of the wells by gently adding 50 μL of 80 % TCA (final concentration, 16 % TCA).
Using the seven absorbance measurements [time zero, (Tz), control growth, (C), and test growth in the presence of drug at the five concentration levels (Ti)], the percentage growth was calculated at each of the drug concentrations levels. Percentage growth inhibition was calculated […]
Three dose response parameters were calculated for each experimental agent. […] The drug concentration resulting in total growth inhibition (TGI) was calculated from Ti = Tz. […]
The cytotoxicity effect of compounds on the colorectal cancer cell lines, SW620 and HT29 in addition to the normal human fibroblasts was measured by MTT (3-(4, 5-dimethylthiazol-2-yl)-2,5-diphenyltetrazolium bromide) (Sigma-Aldrich, St. Louis, MO, USA) as previously described. […]

[3] = Homo sapiens, SW-620, SW-620, MTT

## COc1ccc2c(c1)/C(=N/NC(=O)c1oc3ccccc3c1C)C(=O)N2 [Compound 5d]
MOLT-4; Homo sapiens
  LC50: > 100 µM
MOLT-4
  TGI: >100 µM
HT29
  CC50: > 100 µM
PC-3; Homo sapiens, read-out: LC50 (the source's name)
  CC50: > 100 µM
PC-3
  TGI: >100 µM
HS 578 T; Homo sapiens
  GI50: 2.41 µM
  LC50: > 100 µM
HS 578 T
  TGI: 7.72 µM
[1]
  inhibition of SW-620 cancer cells viability: about 52%
[1]; [3]
  IC50: 6.5 µM
[1]; SW-620, MTT
  IC50: 9.8 µM
[2]
  effect on fibroblast normal cell viability: little effect

## Cc1c(C(=O)N/N=C2\C(=O)Nc3ccccc32)oc2ccccc12 [Compound 5a]
[1]
  inhibition of SW-620 cancer cells viability: 46%
[1]; [3]
  IC50: 8.7 µM
[1]; SW-620, MTT
  IC50: 9.4 µM
[2]
  effect on fibroblast normal cell viability: little effect
